# Results reported in patent US12605358B2, “Composition for preventing or treating nervous system diseases comprising compound that inhibits mTOR signaling pathway as active ingredient” (ALIAD BIOPHARMA, priority 2021, dated 2026).
# Columns and labels:
# mTORC1 = biological target: T1, mTORC1 (Homo sapiens, UniProt P42345); test: mTORC1 inhibition, immunoblot of S6K Thr389 phosphorylation in HeLa cells; type: cell-based; details: at 40 µM, FIG. 2A
# T1 construct: endogenous in cells; host or cells: HeLa
# Description: (§1) HeLa cells were cultured in DMEM (Dulbesco's Modified Eagles Media) containing 10% FBS, penicillin (100 units/ml), and streptomycin (100 μg/ml) at 37° C. in a 5% CO2 incubator. Culture was started by seeding 4×10^5 cells in a 100 mm culture dish, and subcultured every 3 days.
# (§2) Immunoblot analysis was performed by the following method. SDS-PAGE-developed proteins were electroblotted and transferred and a PVDF membrane was blocked by shaking for 1 hour in a TBS-T buffer (20 mM Tris, 137 mM NaCl, 0.1% Tween 20) containing 5% skim milk. The membrane was repeatedly washed with a TBS-T buffer three times for 5 minutes, and reacted with a first antibody diluted in a TBS-T buffer containing 5% skim milk or 5% BSA overnight at 4° C. Thereafter, the membrane was repeatedly washed with a TBS-T buffer three times for 5 minutes, and reacted with a second antibody diluted in a TBS-T buffer containing 5% skim milk for 30 minutes at room temperature. The membrane was repeatedly washed with a TBS-T buffer containing 5% skim milk five times for 5 minutes, and then protein bands bound to the second antibody were detected by a chemiluminescence method. […]
# mTORC2 = biological target: T2, mTORC2 (Homo sapiens, UniProt P42345); test: mTORC2 inhibition, immunoblot of AKT Ser473 phosphorylation in HeLa cells; type: cell-based; details: at 40 µM, FIG. 2A
# T2 construct: endogenous in cells; host or cells: HeLa
# Description: as §1, §2
# 5xFAD transgenic mice [1] = test: NFT removal, AT8/MAP2 staining of brain slices; type: in vivo
# Description: 5xFAD animals were administered with HN-1703 at three doses for 14 days to male heterozygotes aged 6 months (all born within 3 days). The behaviors of mice were measured in a dark cycle in which the mice were active while alternating light and dark in a 12-hour cycle in a breeding room chamber, and the mice were freely accessible to food and water and bred in compliance with experimental animal ethical guidelines of Kyung Hee University. In each group, the HN-1703 was intraperitoneally injected at the same time once a day in a volume of 100 μl to 12 mice in a normal group (wild type littermate), 9 5xFAD mice in a vehicle (DMSO administration), 8 5xFAD mice in a 5 mg/kg administered group, 9 5xFAD mice in a 10 mg/kg administered group, and 9 5xFAD mice in a 20 mg/kg administered group. […] In a behavioral measurement room, humidity (40 to 60%) and temperature (22 to 26° C.) were maintained, and reflected light was maintained to avoid sound and light effects. Behavioral measures were measured in Y-maze, Morris Water Maze, and Passive Avoidance test for 18 days in sequence.
# A brain slice immunostaining method was modified and used as described in Heo H et al. (J Ethnopharmacol, 2009). Mice were transcardially perfused with 4% PFA. After being immersed and fixed in 4% PFA for 4 hours, the brain tissue was unfrozen in 30% sucrose, frozen in an optimal cutting temperature (OCT) mixture, and stored at −80° C. Brain tissue slices were sectioned in a coronal direction at a thickness of 35 μm. The brain tissue slices were immersed in a storage solution (30% glycerol, 30% ethylene glycol, PBS) and stored at 4° C. The stored brain slices were permeabilized in 0.5% Triton X-100 for 20 minutes and shaken in 2 N HCl for 30 minutes at 37° C. Then, the brain slices were blocked in a free-floating state for 2 hours in 15% standard serum, 3% bovine serum albumin (BSA, bio-WORLD, Dublin, OH, USA) and 0.1% Triton X-100. The slices were shaken with a first antibody for 16 hours at 4° C. […]
# 5xFAD transgenic mice [2] = test: Neurogenesis (Sox2/DCX/NeuN staining); type: in vivo; details: 10 to 20 mg/kg; compared to the WT normal group; FIG. 17
# Description: 5xFAD animals were administered with HN-1703 at three doses for 14 days to male heterozygotes aged 6 months (all born within 3 days). The behaviors of mice were measured in a dark cycle in which the mice were active while alternating light and dark in a 12-hour cycle in a breeding room chamber, and the mice were freely accessible to food and water and bred in compliance with experimental animal ethical guidelines of Kyung Hee University. In each group, the HN-1703 was intraperitoneally injected at the same time once a day in a volume of 100 μl to 12 mice in a normal group (wild type littermate), 9 5xFAD mice in a vehicle (DMSO administration), 8 5xFAD mice in a 5 mg/kg administered group, 9 5xFAD mice in a 10 mg/kg administered group, and 9 5xFAD mice in a 20 mg/kg administered group. […] Behavioral measures were measured in Y-maze, Morris Water Maze, and Passive Avoidance test for 18 days in sequence. […]
# FIG. 17 illustrates confocal scanning micrographs of a subgranular zone region of the hippocampal dentate gyrus after triple staining with an NeuN antibody as a neuron marker, an Sox2 antibody as a type1 neural progenitor cell marker, and a DCX antibody as a differentiating and migrating type3 neural precursor cell marker, and quantifying the number of Sox2+/NeuN+ cells and the number of DCX+/NeuN+ cells.
smiles,measurement,setting,value
"COc1cc(OC)c2c(=O)c3cc4c(cc3oc2c1)OCO4 [HN-1703, 7,9-dimethoxy-10H-[1,3]dioxolo[4,5-b]xanthen-10-one]",inhibition of mTORC1 activity (S6K Thr389 phosphorylation) compared to the control group,mTORC1,48%
same,inhibition of mTORC2 activity (AKT Ser473 phosphorylation) compared to the control group,mTORC2,55%
same,decrease of NFTs compared to the 5xFAD-DMSO group,"5xFAD transgenic mice [1]; 20 mg/kg, dentate gyrus, FIG. 9",≥ 70%
same,NFT (AT8 staining),"5xFAD transgenic mice [1]; 5 to 20 mg/kg, all three brain regions examined, FIG. 9",decreased in a dose-dependent manner
same,number of neurons stained with NFT (AT8+/MAP2+),"5xFAD transgenic mice [1]; dentate gyrus, FIG. 10",decreased in a dose-dependent manner
same,DCX+ neural progenitor cells,5xFAD transgenic mice [2],twice or more
same,Sox2+ neural progenitor cells,5xFAD transgenic mice [2],more Sox2+ neural progenitor cells were observed
